In patent US8883965B2, “Compounds” (Ferring B.V., priority 2006, dated 2014):
pEC50: −log10 of the molar value. Positions of bridges follow the written chain, without caps; N, C: chain ends. Non-standard residues stand in square brackets, D forms with d. Residues, ends and D or L forms follow the SMILES beside them. Ala(cPent) = N[C@@H](CC1CCCC1)C(=O)O; Orn(iPr) = CC(C)NCCC[C@H](N)C(=O)O; Cha = N[C@@H](CC1CCCCC1)C(=O)O; Orn = NCCC[C@H](N)C(=O)O; Dab = NCC[C@H](N)C(=O)O; Ac4c = NC1(C(=O)O)CCC1

What follows are molecules tested against T1, hV1a receptor (Homo sapiens, UniProt P37288) (assay: In vitro receptor assay: transcriptional reporter (luciferase) assay of agonist activity in HEK-293 cells transiently transfected with hV1a receptor). Conditions: hV1a receptor in HEK-293 cells, 5 hours exposure, geometric mean of at least three independent experiments, nanomol/L, read-out: EC50 (median effective concentration).
T1 construct: expressed in transfected cells; host or cells: HEK-293
T1 sequence (P37288 whole entry): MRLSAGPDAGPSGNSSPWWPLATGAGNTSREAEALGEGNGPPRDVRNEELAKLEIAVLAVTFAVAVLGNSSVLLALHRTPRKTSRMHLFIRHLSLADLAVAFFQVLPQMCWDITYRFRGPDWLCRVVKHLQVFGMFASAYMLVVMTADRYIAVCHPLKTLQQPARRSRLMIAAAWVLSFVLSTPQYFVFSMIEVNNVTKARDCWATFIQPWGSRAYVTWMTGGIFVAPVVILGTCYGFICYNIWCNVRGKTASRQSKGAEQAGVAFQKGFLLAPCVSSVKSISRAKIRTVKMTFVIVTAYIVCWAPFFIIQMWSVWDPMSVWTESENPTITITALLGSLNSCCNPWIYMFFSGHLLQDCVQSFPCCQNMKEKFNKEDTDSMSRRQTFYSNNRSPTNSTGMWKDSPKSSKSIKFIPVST
Type: cell-based
Procedure: Agonist activity of compounds on the hV1a receptor was determined in a transcriptional reporter assay by transiently transfecting a hV1a receptor expression DNA into HEK-293 cells in concert with a reporter DNA containing intracellular calcium responsive promoter elements regulating expression of firefly luciferase. See Boss, V., Talpade, D. J., Murphy, T. J. J. Biol. Chem. 1996, May 3; 271(18), 10429-10432 for further guidance on this assay.
The EC50 value given is the geometric mean expressed in nanomol/L (nM).
CC[C@H](C)[C@@H]1NC(=O)[C@H](CC2CCCC2)NC(=O)[C@@H](N)CSSC[C@@H](C(=O)N2CCC[C@H]2C(=O)N[C@@H](CCN)C(=O)NCC(N)=O)NC(=O)[C@H](CC(N)=O)NC(=O)[C@H](CC(N)=O)NC1=O [compound 10] (H-C[Ala(cPent)]INNCP[Dab]G-NH2; disulfide 1-6) gave a pEC50 of 7.75. For NCCCC[C@H](NC(=O)[C@@H]1CCCN1C(=O)[C@@H]1CSSC[C@H](NC(=O)CNC(=O)CNC(=O)CN)C(=O)N[C@@H](Cc2ccc(O)cc2)C(=O)N[C@@H](Cc2ccccc2)C(=O)N[C@@H](CCC(N)=O)C(=O)N[C@@H](CC(N)=O)C(=O)N1)C(=O)NCC(N)=O [terlipressin, reference compound] (H-GGGCYFQNCPKG-NH2; disulfide 4-9), the pEC50 was 7.09. In the case of CC[C@H](C)[C@@H]1NC(=O)[C@H](CC2CCCC2)NC(=O)[C@@H](N)CSSC[C@@H](C(=O)N2CCC[C@H]2C(=O)N[C@@H](CCN)C(=O)NCC(N)=O)NC(=O)[C@H](CC(N)=O)NC(=O)[C@H](CCC(N)=O)NC1=O [compound 2] (H-C[Ala(cPent)]IQNCP[Dab]G-NH2; disulfide 1-6), the pEC50 was 9.10. For CC[C@H](C)[C@@H]1NC(=O)C2(CCC2)NC(=O)[C@@H](N)CSSC[C@@H](C(=O)N2CCC[C@H]2C(=O)N[C@@H](CCN)C(=O)NCC(N)=O)NC(=O)[C@H](CC(N)=O)NC(=O)[C@H](CCC(N)=O)NC1=O [compound 3, [AcBuc^2, Dbu^8]VT] (H-C[Ac4c]IQNCP[Dab]G-NH2; disulfide 1-6), the pEC50 was 9.03. Molecule CC[C@H](C)[C@@H]1NC(=O)[C@H](CC2CCCCC2)NC(=O)[C@@H](N)CSSC[C@@H](C(=O)N2CCC[C@H]2C(=O)N[C@@H](CCCNC(C)C)C(=O)NCC(N)=O)NC(=O)[C@H](CC(N)=O)NC(=O)[C@H](CC(N)=O)NC1=O [compound 4, [Cha^2, Asn^4, Orn(i-Pr)^6]VT] (H-C[Cha]INNCP[Orn(iPr)]G-NH2; disulfide 1-6) has a pEC50 of 9.12. CC[C@H](C)[C@@H]1NC(=O)[C@H](CC2CCCCC2)NC(=O)[C@@H](N)CSSC[C@@H](C(=O)N2CCC[C@H]2C(=O)N[C@@H](CCCN)C(=O)NCC(N)=O)NC(=O)[C@H](CC(N)=O)NC(=O)[C@H](CC(N)=O)NC1=O [compound 11] (H-C[Cha]INNCP[Orn]G-NH2; disulfide 1-6) was tested, and the pEC50 was 8.00. For CC[C@H](C)[C@@H]1NC(=O)[C@H](CC2CCCCC2)NC(=O)[C@@H](N)CSSC[C@@H](C(=O)N2CCC[C@H]2C(=O)N[C@@H](CCN)C(=O)NCC(N)=O)NC(=O)[C@H](CC(N)=O)NC(=O)[C@H](CCC(N)=O)NC1=O [compound 1] (H-C[Cha]IQNCP[Dab]G-NH2; disulfide 1-6; N-terminus and C-terminus assumed), the pEC50 was 9.57.
